Series [1] concerns NADPH oxidase. The experiment in a line: NADPH-induced superoxide production by cellular NADPH oxidase, lucigenin chemiluminescence, human aortic endothelial cells. Type of series: cell-based. The conditions noted are these: for inhibition of NADPH oxidase superoxide production: 300 nM to 20 μM for 1 h. The method, then: Human cell cultures derived from aortic endothelium were incubated with NADPH to induce superoxide production by cellular NADPH oxidase. Superoxide production was quantified by lucigenin chemiluminescence. Lucigenin is a specific detector of superoxide. […] Phycocyanobilin (PCB, FIG. 1A) or biliverdin (BVD, FIG. 1B) were added to the NADPH-treated cell cultures in concentrations ranging from 300 nM to 20 μM. Biliverdin is another known inhibitor of NADPH oxidase.
(§1) Human aortic endothelial cells were purchased from Clonetics (East Rutherford, N.J.). The endothelial cell were cultured in endothelial cell basal medium (Clonetics) supplemented with hFGF-B, VEGF, IGF-1, ascorbic acid hEGF, hydrocortisone and 2% fetal calf serum. The cells from 2nd to 5th passages were used in the experiments. Cellular production of superoxide anion was determined by the lucigenin method. For the experiments, cells were detached with trypsin/EDTA and resuspended in modified HEPES buffer containing 140 mM NaCl, 5 mM KCl, 0.8 mM MgCl2, 1.8 mM CaCl2, 1 mM Na2HPO4, 25 mM HEPES, and 1% glucose (pH7.2), and incubated with or without various concentrations of phycocyanobilin (PCB) or biliverdin (BVD) from 300 nM to 20 μM for 1 h. Immediately before recording, NADPH (100 μM) and dark-adapted lucigenin (5 μM) were added to cell suspension. Light emission was recorded every minute for 20 min and was expressed as mean arbitrary light unit/min. Experiments were performed in triplicate. In experiments with inhibition of NAD(P)H oxidase, diphenylene iodonuim cloride (DPI, 10^−5 M), an inhibitor of NAD(P)H oxidase, was added 10 min before NADPH addition and recording of chemiluminescence. This is the first experiment to see the effect of purified phycocyanobilin on NADPH oxidase activity using human aortic endothelial cells.

Series [2] has as its system NADPH oxidase. As to the kind of experiment: NADPH-induced superoxide production by cellular NADPH oxidase, lucigenin chemiluminescence, human aortic smooth muscle cells. The format is cell-based. The conditions noted are these: for inhibition of NADPH oxidase superoxide production: 300 nM to 20 μM for 1 h. The method, then: Human cell cultures derived from aortic smooth muscle were incubated with NADPH to induce superoxide production by cellular NADPH oxidase. Superoxide production was quantified by lucigenin chemiluminescence. Lucigenin is a specific detector of superoxide. […] Phycocyanobilin (PCB, FIG. 2A) or biliverdin (BVD, FIG. 2B) were added to the NADPH-treated cell cultures in concentrations ranging from 300 nM to 20 μM. Biliverdin is another known inhibitor of NADPH oxidase.
as §1, with “aortic smooth muscle” for “aortic endothelial”, “The smooth muscle cells” for “The endothelial cell”, “in a Smooth Muscle Cell Growth Medium” for “in endothelial cell basal medium”, “(Clonetics) containing 5%” for “(Clonetics) supplemented with hFGF-B, VEGF, IGF-1, ascorbic acid hEGF, hydrocortisone and 2%”

The subject of series [3] is NADPH oxidase. The experiment in a line: NADPH-induced superoxide production by cellular NADPH oxidase, lucigenin chemiluminescence, human renal mesangial cells. To be noted: for inhibition of NADPH oxidase superoxide production: 300 nM to 20 μM for 1 h. Type of series: cell-based. The procedure:
Human cell cultures derived from renal mesangial tissue were incubated with NADPH to induce superoxide production by cellular NADPH oxidase. Superoxide production was quantified by lucigenin chemiluminescence. Lucigenin is a specific detector of superoxide. […] Phycocyanobilin (PCB, FIG. 3A) or biliverdin (BVD, FIG. 3B) were added to the NADPH-treated cell cultures in concentrations ranging from 300 nM to 20 μM. Biliverdin is another known inhibitor of NADPH oxidase.
as §1, with “mesangial” for “aortic endothelial”, “[…] cells” for “endothelial cell”, “a Mesangial Cell Growth Medium” for “endothelial cell basal medium”, “containing 5%” for “supplemented with hFGF-B, VEGF, IGF-1, ascorbic acid hEGF, hydrocortisone and 2%”, “chemiluminescence.” for “chemiluminescence. This is the first experiment to see the effect of purified phycocyanobilin on NADPH oxidase activity using human aortic endothelial cells.”

The conditions of series [4]: compared with bilirubin; cited from earlier work.
For series [5] the following is noted: oral administration, compared with bilirubin; cited from earlier work.
For series [6] the following is noted: mice, concurrent administration; cited from earlier work.
The conditions of series [7]: rats; cited from earlier work.
The conditions of series [8]: oral, mice and rats, dose range 50-300 mg/kg/day; cited from earlier work.
The conditions of series [9]: feeding to cholesterol-fed hamsters; cited from earlier work.
For series [10] the following is noted: mice, oral pre-treatment; cited from earlier work.
Setting [11] is: DPI 10^−5 M added 10 min before NADPH (100 μM).

On to phycocyanobilin, for which the “inhibition of NADPH oxidase superoxide production” value in series [1], in series [2] and in series [3] was “dose-dependent inhibition” throughout. The “inhibitory effect on NADPH oxidase activity compared with DPI” value was “equivalent to that of DPI” in series [1] (20 μM); “equivalent to that of DPI” in series [2] (20 μM); “less than that of DPI, but was statistically significant” in series [3] (20 μM).
Consider `c1ccc2c(c1)[I+]c1ccccc1-2` [Diphenyleneiodonium, diphenylene iodonuim cloride], for which the “inhibition of the excess superoxide production induced by added NADPH” value in series [1] (setting [11]), in series [2] (setting [11]) and in series [3] (setting [11]) was “completely inhibit” each time.
As to `C=CC1=C(C)/C(=C/C2=NC(=C\c3[nH]c(/C=C4\NC(=O)C(C)=C4C=C)c(C)c3CCC(=O)O)/C(CCC(=O)O)=C2C)NC1=O` [biliverdin], the “inhibition of NADPH oxidase superoxide production” value in series [1], in series [2] and in series [3] was “dose-dependent inhibition” each time. The solubility result in series [4] is reported as “far more soluble than bilirubin”. The bioavailability entry in [5] was “greater bioavailability than bilirubin”. The “colitis induced with oral dextran sodium sulfate” value in series [6] is “substantially ameliorated”. The “ischemia-reperfusion damage of transplanted organs” value in [7] was “ameliorates the ischemia-reperfusion damage”. Moreover, the “rejection of cardiac or renal allografts” value in [7] is given as “helps to prevent the rejection”.
With phycocyanin, the anti-inflammatory effects entry in series [8] is given as “dose-dependent anti-inflammatory effects”. Also, the “production of arterial fatty streaks” value in [9] is “inhibit the production of arterial fatty streaks quite markedly”. In addition, the “endotoxin-induced shock (severe hypotension and death)” value in [10] is “considerable ameliorated”.
